In patent publication US8440724B2, “Inhibiting neurotransmitter reuptake” (Mayo Foundation for Medical Education and Research, priority 2008, dated 2013):
Entries after “also recorded” stand apart in the source; their conditions may differ. Like-named read-outs stand apart in the source and are kept apart here.

Experiments:
[1] = system: hSERT, hNET, hDAT; experiment: Human transporter binding: rank order and range of potency over the three transporters; conditions: for Potency (rank-order of potency of binding; S = hSERT, N = hNET, D = hDAT): from KD values; for Potency Range (difference between most potent and least potent binding): ratio of KD over hSERT, hNET, hDAT
Description: (§1) The program was modified to calculate the Hill coefficient (nH). Data are presented as geometric mean±S.E.M. of at least three independent experiments. One-component models and two-component models were compared using the root mean square error of each fit and the F test.

[2] = target: T1, human norepinephrine transporter (hNET) (Homo sapiens, UniProt P23975); experiment: Radioligand binding to cloned hNET, [3H]nisoxetine, HEK-293 cell membranes; conditions: Geometric Mean ± SEM; HCl salts; read-out: Equilibrium Dissociation Constant (KD) for Transporter Binding, hNET (N)
T1 construct: expressed in transfected cells; host or cells: HEK-293, stably transfected
T1 sequence (P23975 whole entry): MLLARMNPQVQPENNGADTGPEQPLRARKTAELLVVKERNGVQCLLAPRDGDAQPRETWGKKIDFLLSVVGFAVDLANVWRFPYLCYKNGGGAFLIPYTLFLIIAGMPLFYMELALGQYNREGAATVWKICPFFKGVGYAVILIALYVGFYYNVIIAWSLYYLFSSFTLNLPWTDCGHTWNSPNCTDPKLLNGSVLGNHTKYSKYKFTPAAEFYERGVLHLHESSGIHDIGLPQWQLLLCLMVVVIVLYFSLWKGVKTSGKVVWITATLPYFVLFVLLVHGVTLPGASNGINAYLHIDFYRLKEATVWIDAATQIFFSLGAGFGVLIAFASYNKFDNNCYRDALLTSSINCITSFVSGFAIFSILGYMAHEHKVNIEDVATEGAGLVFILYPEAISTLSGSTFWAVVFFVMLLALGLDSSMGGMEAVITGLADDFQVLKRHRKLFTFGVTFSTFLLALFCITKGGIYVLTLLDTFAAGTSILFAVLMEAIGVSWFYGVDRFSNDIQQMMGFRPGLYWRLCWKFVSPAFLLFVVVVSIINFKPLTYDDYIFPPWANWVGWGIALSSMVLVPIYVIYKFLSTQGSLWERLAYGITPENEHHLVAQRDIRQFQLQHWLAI
Method: (§2) HEK-293 cells expressing the recombinant hSERT or hDAT were incubated with Dulbecco's modified Eagles medium (MEM) supplemented with 0.1 mM nonessential amino acid solution for MEM, 5% v/v fetal bovine serum and 1 U/mL penicillin/streptomycin solution. Cells expressing the hNET transporter were incubated with Dulbecco's modified Eagles medium supplemented with 10% v/v fetal bovine serum and 100 U/mL penicillin/streptomycin solution and 2 mM L-glutamine. The cells were grown until 70-80% confluent on 175 cm^2 flasks in a humidified 10% CO2/90% air environment at 37° C., with the selecting antibiotic Geneticin sulfate at 250 μg/mL. The cells were incubated in 10% CO2, 90% air at 37° C. and 100% humidity.
(§3) Cell membranes containing hSERT, hNET, or hDAT were prepared from the cell lines to assay ligand binding for each of the transporters. […] The washed cells were incubated for 5 minutes at 37° C. in 10 mL solution 1 containing 100 mM ethylene glycol-bis N,N,N′,N′-tetraacetic acid (EGTA). The cells were then scraped from the flask surface with a rubber spatula, placed into a centrifuge tube, and collected by centrifugation at 1000×g for 5 minutes at 4° C. The resulting supernatant was discarded, and the cell pellet was resuspended in 0.5 to1.0 mL of the appropriate binding buffer (described below). The resuspended cell pellet was homogenized using a Polytron for 10 seconds at setting 6. The resulting homogenate was centrifuged at about 36,000×g for 10 minutes at 4° C. The supernatant was discarded, and the pellet was resuspended in the same volume of the appropriate binding buffer and centrifuged again. The supernatant was discarded, and the final pellet containing cell membranes was resuspended in the appropriate binding buffer and stored at −80° C. until use.
To assess binding to the cloned hNET, cells expressing hNET were homogenized in 50 mM Tris-HCl with 300 mM NaCl and 5 mM KCl (pH 7.4). The binding reaction consisted of 5 μg cell membrane protein, 0.5 nM [^3H]nisoxetine (nisoxetine HCl, [N-methyl-^3H], specific activity 82.0 Ci/mmol; Amersham, Arlington Hts., Ill.), and varying concentrations of either unlabeled nisoxetine or the test compound. A reaction to determine non-specific binding consisted of 5 μg cell membrane protein, 0.5 nM [^3H]nisoxetine, and 1 μM final concentration of unlabeled nisoxetine. The reactions were incubated at 22° C. for 60 minutes. Following incubation, the reactions were terminated by rapid filtration through separate GF/B filter strips pretreated with 0.2% polyethylenimine in a 48-well Brandel cell harvester. The cell membrane-containing filter strips were then rinsed five times with ice-cold 0.9% NaCl. After rinsing, individual filters were cut from the strip and placed in a scintillation vial containing 6.5 mL of Redi-Safe (Beckman-Coulter, Fullerton, Calif.).
as §1

[3] = target: T2, human serotonin transporter (hSERT) (Homo sapiens, UniProt P31645); experiment: Radioligand binding to cloned hSERT, [3H]citalopram, HEK-293 cell membranes; conditions: for Kd: Geometric Mean ± SEM, HCl salts, read-out: Equilibrium Dissociation Constant (KD) for Transporter Binding, hSERT (S); for Binding at hSERT compared to PRC200-SS: in words
T2 construct: expressed in transfected cells; host or cells: HEK-293, stably transfected
T2 sequence (P31645 whole entry): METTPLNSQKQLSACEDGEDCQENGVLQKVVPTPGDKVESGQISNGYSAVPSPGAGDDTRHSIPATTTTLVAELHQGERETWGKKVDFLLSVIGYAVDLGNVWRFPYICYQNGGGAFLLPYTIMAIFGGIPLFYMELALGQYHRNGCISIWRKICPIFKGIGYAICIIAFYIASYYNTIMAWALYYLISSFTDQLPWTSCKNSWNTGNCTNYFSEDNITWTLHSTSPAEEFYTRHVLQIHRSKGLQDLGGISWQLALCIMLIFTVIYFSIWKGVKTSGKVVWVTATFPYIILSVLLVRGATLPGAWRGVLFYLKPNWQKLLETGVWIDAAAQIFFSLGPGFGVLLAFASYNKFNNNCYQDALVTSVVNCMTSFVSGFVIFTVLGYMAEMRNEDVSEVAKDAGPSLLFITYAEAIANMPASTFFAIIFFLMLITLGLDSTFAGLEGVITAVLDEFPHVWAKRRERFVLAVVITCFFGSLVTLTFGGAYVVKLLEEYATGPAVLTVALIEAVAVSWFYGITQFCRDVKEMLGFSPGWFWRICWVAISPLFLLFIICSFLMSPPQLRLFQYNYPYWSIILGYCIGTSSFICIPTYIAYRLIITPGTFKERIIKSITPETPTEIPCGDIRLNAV
Method: as §2, §3
Radioligand binding assays for the indicated transporters were performed as follows. To assess binding to the cloned hSERT, cells expressing hSERT were homogenized in 50 mM Tris-HCl with 120 mM NaCl and 5 mM KCl (pH 7.4). The binding reaction consisted of 10 μg cell membrane protein, […] [^3H]citalopram (citalopram, [N-methyl-^3H], specific activity 79.0 Ci/mmol; PerkinElmer, Boston, Mass.), and varying concentrations of either unlabeled citalopram or the test compound. A reaction to determine non-specific binding consisted of 10 μg cell membrane protein, 0.5 nM [^3H]citalopram, and 1 μM final concentration of unlabeled citalopram. The reactions were incubated at 22° C. for 60 minutes. Following incubation, the reactions were terminated by rapid filtration through separate GF/B filter strips pretreated with 0.2% polyethylenimine in a 48-well Brandel cell harvester. The cell membrane-containing filter strips were then rinsed five times with ice-cold 0.9% NaCl. After rinsing, individual filters were cut from the strip and placed in a scintillation vial containing 6.5 mL of Redi-Safe (Beckman-Coulter, Fullerton, Calif.).
as §1

[4] = target: T3, human dopamine transporter (hDAT) (Homo sapiens, UniProt Q01959); experiment: Radioligand binding to cloned hDAT, [3H]WIN35428, HEK-293 cell membranes
T3 construct: expressed in transfected cells; host or cells: HEK-293, stably transfected
T3 sequence (Q01959 whole entry): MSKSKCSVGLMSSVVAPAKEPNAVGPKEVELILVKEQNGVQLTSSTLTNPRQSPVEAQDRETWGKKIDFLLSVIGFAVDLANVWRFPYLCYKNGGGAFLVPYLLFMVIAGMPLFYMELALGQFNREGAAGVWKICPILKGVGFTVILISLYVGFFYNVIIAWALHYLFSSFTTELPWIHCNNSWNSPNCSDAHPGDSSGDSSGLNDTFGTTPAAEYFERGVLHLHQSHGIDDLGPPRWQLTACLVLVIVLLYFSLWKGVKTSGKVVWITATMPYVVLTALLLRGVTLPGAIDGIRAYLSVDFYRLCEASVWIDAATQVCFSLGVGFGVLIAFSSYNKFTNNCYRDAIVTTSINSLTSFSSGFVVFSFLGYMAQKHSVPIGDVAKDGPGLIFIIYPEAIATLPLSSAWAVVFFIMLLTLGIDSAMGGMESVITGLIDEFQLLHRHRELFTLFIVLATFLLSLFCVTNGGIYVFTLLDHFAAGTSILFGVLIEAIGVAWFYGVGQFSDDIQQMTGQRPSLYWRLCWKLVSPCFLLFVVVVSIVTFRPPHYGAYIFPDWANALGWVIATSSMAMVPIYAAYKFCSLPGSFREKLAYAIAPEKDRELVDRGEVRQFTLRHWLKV
Method: as §2, §3
To assess binding to the cloned hDAT, cells expressing hDAT were homogenized in 50 mM Tris-HCl with 120 mM NaCl (pH 7.4). The binding reaction contained 15 μg cell membrane protein, 1 nM [^3H]WIN35428 (WIN35428, [N-methyl-^3H], specific activity 85.9 Ci/mmol; PerkinElmer, Boston, Mass.), and varying concentrations of either unlabeled WIN35428 or the test compound. A reaction to determine non-specific binding contained 15 μg cell membrane protein, 1 nM [^3H]WIN35428, and 10 μM final concentration of unlabeled WIN35428. The reactions were incubated at 22° C. for 1 hour. Following incubation, the reactions were terminated by rapid filtration through separate GF/B filter strips pretreated with 0.2% polyethylenimine in a 48-well Brandel cell harvester. The cell membrane-containing filter strips were then rinsed five times with ice-cold 0.9% NaCl. After rinsing, individual filters were cut from the strip and placed in a scintillation vial containing 6.5 mL of Redi-Safe (Beckman-Coulter, Fullerton, Calif.).
as §1

[5] = system: Male Sprague-Dawley rats; experiment: Forced swim test in rats; assay type: in vivo, rat; conditions: for Antidepressant activity in forced swim test compared with imipramine (15 mg/kg IP): FIG. 12A
Method: When rats are placed in a cylinder of water from which they cannot escape, they will remain immobile in the water for the majority of the test.
Water was changed between trials, and the procedure involved a pretest and a 5-minute test separated by 24 hours. During the pretest, rats (adapted to the experimental room for no less than one hour) were placed in the cylinder for 15 minutes. Following this initial exposure, the rats were dried with towels and transferred to a “drying cage” situated under a warming lamp. […] The following day, rats were transferred to the experimental room and acclimated for at least one hour.
The rat was considered immobile when floating motionless or making only those movements necessary to keep its head above the surface of the water. Scores for each behavior (swimming or immobility) were expressed as total counts per 5-minute session. Statistical analysis was performed using ANOVA followed by the Tukey test for post-hoc comparisons.

[6] = target: hERG (Homo sapiens, UniProt Q12809); experiment: hERG assay: block of rubidium ion (Rb+) efflux from cells expressing hERG
Sequence of hERG (Q12809 whole entry): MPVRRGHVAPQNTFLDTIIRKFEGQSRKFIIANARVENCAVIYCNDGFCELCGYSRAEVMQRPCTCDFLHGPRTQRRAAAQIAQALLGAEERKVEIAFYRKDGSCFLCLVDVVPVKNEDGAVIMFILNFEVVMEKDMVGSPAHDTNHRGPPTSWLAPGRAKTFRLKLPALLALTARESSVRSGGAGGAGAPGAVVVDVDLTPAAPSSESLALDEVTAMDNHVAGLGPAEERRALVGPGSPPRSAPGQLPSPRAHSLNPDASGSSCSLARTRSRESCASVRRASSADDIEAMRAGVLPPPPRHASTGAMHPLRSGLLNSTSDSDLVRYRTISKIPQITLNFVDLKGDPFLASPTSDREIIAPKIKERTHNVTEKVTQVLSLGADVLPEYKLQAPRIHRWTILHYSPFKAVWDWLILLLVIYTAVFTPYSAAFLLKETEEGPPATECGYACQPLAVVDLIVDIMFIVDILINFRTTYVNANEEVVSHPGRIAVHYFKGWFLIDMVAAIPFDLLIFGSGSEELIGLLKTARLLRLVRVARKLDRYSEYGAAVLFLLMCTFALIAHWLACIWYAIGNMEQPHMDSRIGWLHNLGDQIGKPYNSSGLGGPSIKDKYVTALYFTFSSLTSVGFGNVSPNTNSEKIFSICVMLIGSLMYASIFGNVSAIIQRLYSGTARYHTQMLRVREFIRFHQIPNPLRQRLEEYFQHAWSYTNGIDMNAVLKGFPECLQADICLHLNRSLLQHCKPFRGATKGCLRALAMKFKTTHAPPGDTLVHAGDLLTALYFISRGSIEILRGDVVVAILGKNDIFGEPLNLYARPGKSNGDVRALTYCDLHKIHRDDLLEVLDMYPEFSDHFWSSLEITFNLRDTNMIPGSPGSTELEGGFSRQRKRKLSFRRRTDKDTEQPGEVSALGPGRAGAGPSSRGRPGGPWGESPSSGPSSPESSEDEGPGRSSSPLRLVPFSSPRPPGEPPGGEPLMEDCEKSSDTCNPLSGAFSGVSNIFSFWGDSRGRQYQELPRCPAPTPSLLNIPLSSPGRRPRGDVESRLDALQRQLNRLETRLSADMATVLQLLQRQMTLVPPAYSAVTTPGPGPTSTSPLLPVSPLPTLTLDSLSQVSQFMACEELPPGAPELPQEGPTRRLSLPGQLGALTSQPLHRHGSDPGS
Method: Human “ether-a-go-go” (hERG) is an ion channel. Blockade of this channel can be predictive of causing cardiac arrhythmias in humans. hERG assays were performed to measure the ability of a compound to block rubidium ion (Rb^+) efflux from cells expressing hERG. Cells were pre-loaded with Rb^+, incubated with test compound, and then exposed to a buffer that opens the channel and allows the efflux of ions. Compounds as powder were dissolved in 100% DMSO to prepare 100 mM stock solutions. […] The stocks were stored at 23° C.
The range of doses for the test compounds was 30 nM through 100,000 nM.

[7] = target: T4, CYP2D6 (Homo sapiens, UniProt P10635); experiment: CYP2D6 inhibition, CYP2D6/AMMC kit (BD Biosciences), fluorescent substrate; assay type: in vitro ADME
T4 construct: purchased BD Biosciences 459200
T4 sequence (P10635 whole entry): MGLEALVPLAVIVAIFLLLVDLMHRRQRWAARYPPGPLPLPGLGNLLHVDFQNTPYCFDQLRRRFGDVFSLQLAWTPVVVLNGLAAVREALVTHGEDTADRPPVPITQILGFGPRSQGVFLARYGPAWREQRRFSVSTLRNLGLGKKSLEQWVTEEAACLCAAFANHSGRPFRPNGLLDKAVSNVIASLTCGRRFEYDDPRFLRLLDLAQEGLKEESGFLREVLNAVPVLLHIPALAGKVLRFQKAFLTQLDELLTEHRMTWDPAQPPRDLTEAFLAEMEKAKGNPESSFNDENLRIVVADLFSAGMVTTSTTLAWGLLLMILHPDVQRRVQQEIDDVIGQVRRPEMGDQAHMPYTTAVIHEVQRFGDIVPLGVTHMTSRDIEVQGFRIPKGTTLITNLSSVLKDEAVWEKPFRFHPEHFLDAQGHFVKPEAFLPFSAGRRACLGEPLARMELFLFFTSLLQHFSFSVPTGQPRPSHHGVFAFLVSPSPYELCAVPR
Description: This kit includes the use of a fluorescent P450 substrate (AMMC or 3-[2-(N,N-diethyl-N-methylamino)ethyl]-7-methoxy-4-methylcoumarin) and recombinant human P450.

[8] = system: rat 5-HT, NE and DA transport, synaptosomal preparations; experiment: Rat brain synaptosomal transport: rank order of potency; assay type: biochemical
Method: The dissected tissues were separately homogenized in 20 volumes (cortical) or 40 volumes (striatal) of ice-cold, oxygenated HEPES buffer 0.32 M sucrose containing 11 mM glucose (pH 7.4) in a glass Potter-Elvehjem homogenizer with Teflon® pestle (8 strokes, 900 rpm). The homogenates were centrifuged at 1,000×g for 10 minutes. The resulting supernatant was decanted and further centrifuged at 20,000×g for 20 minutes at 4° C. […] The synaptosomal protein concentration was determined by using the BCA assay (Pierce Biotechnology Inc, Rockford, Ill.), according to the manufacturer's instructions. Synaptosomal protein (1.0-2.5 mg) was suspended in 1 mL oxygenated incubation buffer as defined above. Test amine compound was pre-incubated with the synaptosomal preparation for 30 minutes at 37° C. in a shaking water bath (80 oscillations/minute).

[9] = Geometric Mean ± SEM, HCl salts, read-out: Equilibrium Dissociation Constant (KD) for Transporter Binding, hDAT (D)

Row | Structure (SMILES) | Potency (rank-order of potency of binding; S = hSERT, N = hNET, D = hDAT) [1] | Potency Range (difference between most potent and least potent binding) [1] [fold] | Kd [2] [µM] | Kd [3] [µM] | Binding at hSERT compared to PRC200-SS [3] | Kd [4] [µM] | Immobility in forced swim test vs saline ([5]; 5 mg/kg IP) | Swimming in forced swim test vs saline ([5]; 5 mg/kg IP) | Antidepressant activity in forced swim test compared with imipramine (15 mg/kg IP) ([5]; 5 mg/kg IP) | Kd [4, 9] [µM] | also measured
1 | CNC[C@H](c1ccc2ccccc2c1)[C@@H](Cl)c1ccccc1 [MCJ001-Cl-RS, (2S,3R)-3-chloro-N-methyl-2-(naphthalen-2-yl)-3-phenylpropan-1-amine] | S > D > N | 9.5 | 0.0104 ± 0.0004 | 0.0011 ± 0.0001 | greater binding at hSERT | 0.0079 ± 0.0004 | statistically (P<0.04) less immobility | statistically (P<0.04) more swimming behavior | antidepressant activity that was similar to that observed in rats treated with the positive control | – | Binding at hDAT compared to PRC200-SS ([4]; in words): several fold more potent binding at hDAT
2 | CNC[C@H](c1ccc2ccccc2c1)[C@H](Cl)c1ccccc1 [MCJ001-Cl-SS, (2S,3S)-3-chloro-N-methyl-2-(naphthalen-2-yl)-3-phenylpropan-1-amine] | S > N > D | 71 | 0.0037 ± 0.0005 | 0.0011 ± 0.0001 | greater binding at hSERT | 0.078 ± 0.005 | statistically (P<0.04) less immobility | statistically (P<0.04) more swimming behavior | antidepressant activity that was similar to that observed in rats treated with the positive control | – | IC50 [6]: 45.4 µM
3 | CNC[C@@H](c1ccc2ccccc2c1)[C@H](N)c1ccccc1 [MCJ001-NH2-SR, (2R,3S)-N1-methyl-2-(naphthalen-2-yl)-3-phenylpropane-1,3-diamine] | N > S > D | 1.6 | 0.166 ± 0.008 | 0.18 ± 0.01 | – | – | – | – | – | 0.26 ± 0.02 | IC50 [7]: 4.1 µM
4 | CNC[C@H](c1ccc2ccccc2c1)[C@H](OC(C)=O)c1ccccc1 [MCJ001-OAc-SS, (1S,2S)-3-(methylamino)-2-(naphthalen-2-yl)-1-phenylpropyl acetate] | N > S > D | 3.4 | – | 0.055 ± 0.006 | – | – | statistically (P<0.04) less immobility | statistically (P<0.04) more swimming behavior | antidepressant activity that was similar to that observed in rats treated with the positive control | 0.15 ± 0.02 | Potency of inhibition at CYP2D6, in words ([7]; compared with PRC200-SS): markedly reduced the potency of inhibition at CYP2D6; IC50 ([7]; recombinant human P450, AMMC substrate, read-out: Mean CYP2D6 (IC50)): 0.6 µM; Blocking of hERG channel compared with PRC200-SS ([6]; in words): weaker than PRC200-SS at blocking this channel; IC50 ([6]; read-out: hERG (IC50), Rb+ efflux, eight doses in duplicate): 78.8 µM
5 | CN1CO[C@H](c2ccccc2)[C@@H](c2ccc3ccccc3c2)C1 [MCJ001-OH-Cyc-SS, (5S,6S)-3-methyl-5-(naphthalen-2-yl)-6-phenyl-1,3-oxazinane] | S > N > D | 29 | 0.0027 ± 0.0003 | 0.0018 ± 0.0002 | greater binding at hSERT | 0.052 ± 0.005 | – | – | antidepressant activity that was similar to that observed in rats treated with the positive control | – | Immobility in forced swim test, 5 mg/kg IP vs 5 mg/kg PO of the same compound [5]: statistically (P≦0.04) less immobility than rats treated with MCJ001-OH-Cyc-SS (5 mg/kg PO); Immobility in forced swim test vs saline ([5]; 5 mg/kg IP, 5 mg/kg): statistically (P<0.04) less immobility; also recorded: statistically (P≦0.04) less immobility; Swimming in forced swim test vs saline ([5]; 5 mg/kg IP, 5 mg/kg): statistically (P<0.04) more swimming behavior; Climbing in forced swim test vs saline ([5]; 5 mg/kg PO): statistically (P≦0.04) more climbing; Immobility in forced swim test vs saline ([5]; 5 mg/kg PO): statistically (P≦0.04) less immobility; Swimming in forced swim test vs saline ([5]; 5 mg/kg PO): statistically (P≦0.04) more swimming
6 | CN1Cc2c(N)cccc2C(c2ccccc2)C1 (stereo not shown) [Nomifensine, reference compound] | N > D > S | – | – | – | – | – | – | – | – | – | Potency (rank order, transport into rat brain synaptosomal preparations) [8]: N > D > S
